Test results reported in EP1344776A1, “5- 2-hydroxy-3-[1-(3-trifluoromethylphenyl)-cyclopropyl]-propionylamino -phtalide and 6- 2-hydroxy-3-[1-(3-trifluoromethylphenyl)-cyclopropyl]-propionylamino -4-methyl-2,3-benzoxazin-1-one derivatives with progesterone receptor modulating activity for use in fertility control, hormone replacement …” (Schering Aktiengesellschaft, priority 2002, dated 2003).
Where two headings read alike, the source gives them in different places.

Key:
rat mammary epithelium = assay: Bioassay on proliferating/differentiating effects in the rat mammary epithelium (whole mount staining); assay type: in vivo
Description: The object of this test is to evaluate the effect of progestins on the development of the mammary gland, in particular on the formation of terminal end buds in the mammary gland in estrogen primed rats.
Premature female rats (Wistar Han, SPF) are ovariectomized at the age of 21 days, 4 to 6 days before treatment start. The animals are treated for 6 days with standard estrogen (estrone, 70 µg/kg) and the test progestin (application volume: 0.1 ml/50g body weight; vehicle: benzylbenzoate/castor oil (1+4 v/v); subcutaneous). Control groups are e.g.: vehicle, estrone without progestin, estradiol together with a known progestin, e.g. R5020 (promegestone). After the 6-day treatment the animals are killed with carbon dioxide.
For the whole mount staining, animals are shaved in the left abdominal inguinal mammary region, which is cut from the body together with the skin. For the histological/immunohistochemical analyses the right abdominal inguinal mammary gland is cut from the body together with the connective tissue adhered thereto and fixed in 3.7 % formalin in PBS (phosphate buffer saline; without Ca^2+/Mg^2+).
The preparations are fixed over night in alcohol-formalin according to the method of Tellyesniczky (see below). Then the mammary gland tissue and subcutis adhered thereto are stripped from the cutis and the preparations are again fixed over night. The further steps are as follows: ethanol 70 %: 1.5 hours; acetone: 3 × 1.5 hours; acetone: over night; isopropanol: 1.5 hours; ethanol 96 %: 2 hours; hematoxylin-iron: 3 hours; VE water: first rinse the preparations and then 2 × 0.5 hours; ethanol 70 %: over night; ethanol 80 %: 1.5 hours; ethanol 96 %: 1.5 hours; isopropanol: 1.5 hours. The preparations are then moved to petri dishes and left in toluene for approximately 1 hour, i.e. until they have stopped to swim up. Then the preparations are treated with cedarwood oil (Merck, no. 1.06965). The incubation times above are minimum times and can be extended. In particular, incubation in ethanol 70 % after fixation can be extended to at least 2.5 weeks.
Preparation of the solutions necessary for the whole mount staining: • a) Alcohol-formalin according to Tellyesniczky: formaldehyde 37%: 81.8 ml, ethanol 70 %: 1636 ml, glacial acetic acid (to be added shortly before use): 81.8 ml (total: 1800 ml). • b) Hematoxylin mother solution: Hematoxylin (Merck, no. 1.15938): 10 g, ethanol 96 %: 100 ml. The solution must stand for 48 hours at 37 °C before use. It can be kept in a dark place for almost unlimited time. • c) Hematoxylin-iron solution for use: hematoxylin mother solution (filtered): 15.2 ml, ethanol 96 %: 1374 ml, FeCl3 x 6 H2O (s. 4): 91.1 ml, 1 mol/l HCl: 220 ml (total: 1700 ml); adjustment to a pH of 1.25 with 2mol/l NaOH. • d) FeCl3 x 6 H2O solution: FeCl3 x 6 H2O (Merck, no. 1.03943): 1.07 g, VE water: 90.2 ml, HCl: 37 %: 0.92 ml (total: 91.1 ml).
By means of a 40-fold magnification, the terminal end buds near the nipple in direction of the tail are counted. The area to be investigated should be about 1.8 mm^2. For well-differentiated preparations this area may be reduced, with at least 250 buds to be counted. After counting, the number of end buds per 1 mm^2 is calculated. […]

juvenile female rabbits = assay: Endometrial transformation in rabbit (Clauberg test); assay type: in vivo; settings: for McPhail Index: scores 1 to 4; for minimal effective dose: Oryctolagus cuniculus, read-out: Threshold Value
[1] = target: T1, estrogen receptor-α (ERα) (Homo sapiens, UniProt P03372); assay: Estrogen receptor-α binding; settings: in vitro
T1 sequence (P03372 1-595): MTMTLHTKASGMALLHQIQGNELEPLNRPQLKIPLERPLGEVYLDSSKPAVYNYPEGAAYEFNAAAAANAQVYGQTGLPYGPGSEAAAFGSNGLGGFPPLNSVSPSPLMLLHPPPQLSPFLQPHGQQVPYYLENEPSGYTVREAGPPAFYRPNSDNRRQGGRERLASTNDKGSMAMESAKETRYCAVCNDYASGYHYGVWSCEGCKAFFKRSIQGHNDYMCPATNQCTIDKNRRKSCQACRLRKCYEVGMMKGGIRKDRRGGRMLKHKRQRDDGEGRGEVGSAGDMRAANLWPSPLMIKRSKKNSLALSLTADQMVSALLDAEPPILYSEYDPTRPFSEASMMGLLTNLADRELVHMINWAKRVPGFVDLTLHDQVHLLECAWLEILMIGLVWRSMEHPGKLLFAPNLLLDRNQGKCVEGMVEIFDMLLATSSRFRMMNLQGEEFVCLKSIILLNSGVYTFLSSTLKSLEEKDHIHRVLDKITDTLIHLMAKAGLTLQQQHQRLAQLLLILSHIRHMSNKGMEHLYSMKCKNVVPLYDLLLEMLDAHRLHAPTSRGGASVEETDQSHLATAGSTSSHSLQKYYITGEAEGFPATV

orchidectomized rats = assay: Androgenic / anti-androgenic activity in orchidectomized rats (prostate weight, seminal vesicle); assay type: in vivo, rat; settings: prostate weight and seminal vesicle
Description: The absence of androgenic as well as anti-androgenic activity in vivo was confirmed by tests performed with orchidectomized rats (change in prostate weight and in the seminal vesicle).

[2] = Glucocorticoid / anti-glucocorticoid activity in vivo (changes in thymus weight); settings: concluded from changes in thymus weight

## O=C1OCc2cc(NC(=O)C(O)(CC3(c4cc(C(F)(F)F)ccc4F)CC3)C(F)(F)F)ccc21 (single isomer, unassigned; (+)) [((+)-1), (+)-5-{2-hydroxy-3-[1-(2-fluoro-5-trifluoromethylphenyl)-cyclopropyl]-2-trifluoromethyl-propionylamino}-phthalide]
Rat mammary epithelium; median of three independent tests
  Mammary gland, whole mount staining (rat) [equi-efficient dose], factor compared to R5020: ca. 1
Rat mammary epithelium; rat, amount suitable for maintaining pregnancy
  effects at the mammary gland: no effects at the mammary gland are observed
Rat mammary epithelium; terminal end buds, dose pair with 0.1 mg/kg R5020, independent test
  Mammary gland, whole mount staining (rat) [equi-efficient dose]: 0.03 mg/kg
Juvenile female rabbits; Oral (p.o.), 0.001 mg/kg
  McPhail Index: 1.2
Juvenile female rabbits; Oral (p.o.), 0.01 mg/kg
  McPhail Index: 2.5
Juvenile female rabbits; Oral (p.o.), 0.1 mg/kg
  McPhail Index: 3.0
Juvenile female rabbits; sc, Subcutaneous (s.c.)
  minimal effective dose: 0.001 to 0.01 mg/kg
Juvenile female rabbits; Oral (p.o.)
  minimal effective dose: 0.001 to 0.01 mg/kg
Juvenile female rabbits; Subcutaneous (s.c.), 0.001 mg/kg
  McPhail Index: 1.0
Juvenile female rabbits; Subcutaneous (s.c.), 0.01 mg/kg
  McPhail Index: 2.7
Juvenile female rabbits; Subcutaneous (s.c.), 0.1 mg/kg
  McPhail Index: 3.8
[1]
  affinity for the estrogen receptor-α (ERα): negligible
Orchidectomized rats
  androgenic activity in vivo: no androgenic
  anti-androgenic activity in vivo: no anti-androgenic activity
[2]
  glucocorticoid or anti-glucocorticoid activity in vivo: does not seem to exhibit any glucocorticoid or any anti-glucocorticoid activity
